Entries after “also recorded” stand apart in the source; their conditions may differ. Where no end group is shown, it is not given here.
Columns and labels:
[1] = tested on: mast cells (MC); experiment: Toluidine blue count of degranulated mast cells in dorsal skin biopsies of STZ-DM mice; format: in vivo; conditions: STZ-DM C57Bl6 mice, 8-weeks DM, ten days intraperitoneal treatment
Protocol: The number of intact or non-degranulated and degranulated MC in dorsal skin biopsies from non-DM and STZ-DM C57B16 mice with 8-weeks DM were evaluated by toluidine blue staining. Sections were stained metachromatically with 0.1% toluidine blue, pH 2 (cytoplasmic granules appear purple on a blue background). […] See e.g., J Peripher Nery Syst 2008; 13:218-27, Handbook of clinical neurology 2013; 115:115-36, Immunol Rev 2007; 217:65-78, Proc Natl Acad Sci USA 2006; 103:7759-64, and Nature 1982; 297:229-31. Non-DM and STZ-DM mice were also treated for ten days intraperitoneally with the MC stabilizer disodium cromoglycate (DSCG). […] However, the number of extensively degranulated MC was increased whereas the number of non-degranulated cells was reduced in STZ-DM mice compared to the non-DM controls.

[2] = tested on: M1 and M2 macrophages; experiment: M1/M2 macrophage ratio in skin after 10-day intraperitoneal DSCG; format: in vivo, mice; conditions: measured ten days after treatment completion
Protocol: The number of HLA-DR^+/CD68^+ (M1−) and CD206/CD68^+ (M2−) macrophages in the skin of DM patients and non-DM subjects were evaluated by immunofluorescence following previously defined methods. See e.g., J Peripher Nery Syst 2008; 13:218-27, Handbook of clinical neurology 2013; 115:115-36, Immunol Rev 2007; 217:65-78, Proc Natl Acad Sci USA 2006; 103:7759-64, and Nature 1982; 297:229-31. […] The gene expression of M1-associated pro-inflammatory cytokines, such as TNF-α (FIG. 4, panel a) and IL-1β (FIG. 4, panel b), was also elevated in the foot skin of diabetes mellitus patients, whereas the M2-associated anti-inflammatory cytokine IL-10 was reduced (FIG. 4, panel c).
Using the same methods as in the human samples described above, an increased M1/M2 ratio in C57BL/6J STZ-DM mice was observed. […] Both non-DM and STZ-DM KO mice and their normal littermates were tested.
The effect of a 10-day disodium cromoglycate (DSCG) intraperitoneal administration was evaluated in non-DM and STZ-DM C57B16 mice that were also tested for their wound healing capacity.

[3] = tested on: intraepidermal nerve fibers; experiment: Intraepidermal nerve fiber density (IENFD) in normal skin adjacent to wounds; format: in vivo, mice
Protocol: In a blinded mode, the IENFD in normal skin areas adjacent to wounds in non-DM and DM not-treated and treated with topical SP application for a 10-day period as described above (FIGS. 13 and 14) was evaluated. […] Similar results were found in preliminary studies that evaluated the effect of MC stabilization with DSCG. More specifically, DSCG treatment in two DM mice tended to have a beneficial effect in IENFD (151±55 fibers/mm) compared to four non-treated DM mice (55±17, p<0.05). Initial observations in TAC1KO mice also indicated reduced IENFD (28±12, n=2 mice) that improved in a similar way as with the previous experiments following SP treatment (41±16, n=2).

[4] = tested on: 6 mm excisional wounds; experiment: Daily topical SP in 6 mm excisional wounds: IL-6 expression and M1/M2 ratio; format: in vivo, mice
From the text: Daily topical Substance P (SP) application in 6 mm excisional wounds created at the back of non-DM and STZ-DM mice increased the IL-6 expression and M1/M2 ratio three days after wounding, imitating the acute inflammatory phase of wound healing in acute wounds (FIG. 12). However, at Day-10, SP reduced both these inflammatory factors in STZ-DM mice, which was increased when compared to non-DM mice.

[5] = tested on: wounds; experiment: Topical wound SP treatment in MC deficient mice (wound healing); format: in vivo; conditions: compared with WT mice
From the text: Combined topical treatment with SP and an MC stabilization agent should have an additive, if not synergistic, effect in preventing and reversing SFN.

[6] = STZ-DM mice, Day-10, listed as SP
[7] = non-DM and STZ-DM mice, three days after wounding
[8] = non-DM and STZ-DM mice, three days after wounding, listed as SP

| Compound | number of degranulated MC in skin [1] | M1/M2 macrophage ratio ([2]; STZ-DM C57Bl6 mice) | M1/M2 macrophage ratio ([2]; non-DM C57Bl6 mice) | IENFD ([3]; DM mice treated with DSCG (two mice), preliminary study, non-treated DM 55±17) [fibers/mm] | IL-6 expression in wounds [4, 6] | M1/M2 ratio in wounds [4, 6] | IL-6 expression in wounds [4, 7] | M1/M2 ratio in wounds [4, 7] | IL-6 expression in wounds [4, 8] | M1/M2 ratio in wounds [4, 8] | IENFD ([3]; DM mice, topical application for 10 days, periwound normal skin, listed as SP) | IENFD ([3]; TAC1KO mice after SP treatment (n=2), initial observations, untreated 28±12) [fibers/mm] | IENFD ([3]; non-DM mice, topical application for 10 days, periwound normal skin, listed as SP) | effect on wound healing [5] |
| --- | --- | --- | --- | --- | --- | --- | --- | --- | --- | --- | --- | --- | --- | --- |
| O=C([O-])c1cc(=O)c2c(OCC(O)COc3cccc4oc(C(=O)[O-])cc(=O)c34)cccc2o1.[Na+].[Na+] [DSCG, disodium cromoglycate] | effectively reduce the number of degranulated cells | drastically reduces it in STZ-DM to normal levels; also recorded: reduced the ratio to levels similar to the non-DM mice; also recorded: reduces the M1/M2 ratio to normal levels | no effect | 151±55 |  |  |  |  |  |  |  |  |  |  |
| Substance P (RPKPQQFFGLM-NH2; ends and bridges not checked; UniProt P20366 58-68, looked up) [neuropeptide Substance P (SP), acts through the NK1 receptor] |  |  |  |  | reduced the chronic inflammation | reduced the chronic inflammation | increased | increased | induced an acute inflammatory response | induced an acute inflammatory response | returned to normal levels; also recorded: increased IENFD to levels similar to the non-DM mice | 41±16 | did not affect IENFD; also recorded: no obvious effect | lacks the beneficial effects |

Source: US20180161388A1, “SUBSTANCE P, MAST CELL DEGRANULATION INHIBITORS, AND PERIPHERAL NEUROPATHY” (Beth Israel Deaconess Medical Center, Inc., priority 2015, published 2018)
